The target of this test is T1, mTOR (Homo sapiens, UniProt P42345).
T1 construct: FLAG; made in house
Put plainly: In Vitro mTOR Kinase Assay (Echo), Test (a)(ii). The test is classed as biochemical. Summed up:
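Compounds were acoustically dispensed, then incubated with FLAG-tagged mTOR (1362-2549) for 2 hours at room temperature. Reactions were quenched with EDTA plus detection antibody and AlphaScreen beads and left overnight in the dark before reading. Loss of phospho-T389 signal gave IC50 values.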

[1] abbreviates: read-out: mTOR Kinase Assay (Echo).
Setting [2] is: table of enzyme assay Test (a)(ii), read-out: Test (a)(ii) IC50.

Read-outs that look alike come from different tables or passages of the source.

T1 sequence (P42345 1362-2549): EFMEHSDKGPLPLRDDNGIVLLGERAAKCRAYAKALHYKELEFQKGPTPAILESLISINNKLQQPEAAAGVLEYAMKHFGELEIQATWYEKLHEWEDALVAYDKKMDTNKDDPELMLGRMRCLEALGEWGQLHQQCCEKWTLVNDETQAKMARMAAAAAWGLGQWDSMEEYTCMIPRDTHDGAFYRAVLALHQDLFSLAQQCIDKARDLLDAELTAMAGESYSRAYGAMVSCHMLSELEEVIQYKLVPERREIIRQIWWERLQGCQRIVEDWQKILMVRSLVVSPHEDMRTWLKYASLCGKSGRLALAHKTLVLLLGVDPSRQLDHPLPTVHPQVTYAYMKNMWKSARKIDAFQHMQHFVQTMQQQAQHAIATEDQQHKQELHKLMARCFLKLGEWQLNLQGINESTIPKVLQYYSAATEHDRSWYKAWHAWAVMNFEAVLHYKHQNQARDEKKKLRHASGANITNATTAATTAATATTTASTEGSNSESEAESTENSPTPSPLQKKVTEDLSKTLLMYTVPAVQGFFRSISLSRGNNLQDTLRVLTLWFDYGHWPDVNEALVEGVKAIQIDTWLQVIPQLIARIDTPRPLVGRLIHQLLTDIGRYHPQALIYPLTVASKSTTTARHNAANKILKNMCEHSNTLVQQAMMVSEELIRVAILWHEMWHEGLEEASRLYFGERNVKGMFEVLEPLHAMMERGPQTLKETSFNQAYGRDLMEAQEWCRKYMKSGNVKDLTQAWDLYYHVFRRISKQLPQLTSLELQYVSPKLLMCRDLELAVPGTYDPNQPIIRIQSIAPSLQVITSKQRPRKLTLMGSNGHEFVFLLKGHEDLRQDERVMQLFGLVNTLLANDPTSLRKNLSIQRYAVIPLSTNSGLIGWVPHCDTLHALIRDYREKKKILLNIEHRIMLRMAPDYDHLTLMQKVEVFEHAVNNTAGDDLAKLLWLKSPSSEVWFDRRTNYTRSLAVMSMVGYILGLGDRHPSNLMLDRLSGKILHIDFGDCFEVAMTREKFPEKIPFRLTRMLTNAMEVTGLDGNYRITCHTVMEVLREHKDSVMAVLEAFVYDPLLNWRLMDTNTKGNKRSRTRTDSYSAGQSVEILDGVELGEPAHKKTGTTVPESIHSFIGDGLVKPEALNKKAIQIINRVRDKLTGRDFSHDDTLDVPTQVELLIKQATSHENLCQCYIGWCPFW

As to `CNC(=O)Nc1ccc(-c2nc(N3CCOC[C@@H]3C)cc(C3(S(=O)(=O)c4ccccc4C(F)(F)F)CC3)n2)cc1` [Example 10i, 3-methyl-1-[4-[4-[(3S)-3-methylmorpholin-4-yl]-6-[1-[2-(trifluoromethyl)phenyl]sulfonylcyclopropyl]pyrimidin-2-yl]phenyl]urea], the IC50 under setting [1] came out at 5.91 nM.

As for `C[C@H]1COCCN1c1cc(C2(S(=O)(=O)c3ccccc3C(F)(F)F)CC2)nc(-c2ccc(NC(=O)Nc3ccc(C(F)(F)F)cc3)cc2)n1` [Example 10j, 1-[4-[4-[(3S)-3-methylmorpholin-4-yl]-6-[1-[2-(trifluoromethyl)phenyl]sulfonylcyclopropyl]pyrimidin-2-yl]phenyl]-3-[4-(trifluoromethyl)phenyl]urea], the IC50 under setting [1] is 110 nM.

With `C[C@H]1COCCN1c1cc(C2(S(=O)(=O)c3ccccc3C(F)(F)F)CC2)nc(-c2ccc(NC(=O)NC(C)(C)CO)cc2)n1` [Example 10k, 3-(1-hydroxy-2-methyl-propan-2-yl)-1-[4-[4-[(3S)-3-methylmorpholin-4-yl]-6-[1-[2-(trifluoromethyl)phenyl]sulfonylcyclopropyl]pyrimidin-2-yl]phenyl]urea], the IC50 under setting [1] is 50.2 nM.

As for `C[C@H]1COCCN1c1cc(C2(S(=O)(=O)c3ccccc3C(F)(F)F)CC2)nc(-c2ccc(NC(=O)NCCCO)cc2)n1` [Example 10l, 3-(3-hydroxypropyl)-1-[4-[4-[(3S)-3-methylmorpholin-4-yl]-6-[1-[2-(trifluoromethyl)phenyl]sulfonylcyclopropyl]pyrimidin-2-yl]phenyl]urea], under setting [1], the IC50 turned out to be 18.3 nM.

With `C[C@H]1COCCN1c1cc(C2(S(=O)(=O)c3ccccc3C(F)(F)F)CC2)nc(-c2ccc(NC(=O)Nc3cnn(C)c3)cc2)n1` [Example 10m, 1-[4-[4-[(3S)-3-methylmorpholin-4-yl]-6-[1-[2-(trifluoromethyl)phenyl]sulfonylcyclopropyl]pyrimidin-2-yl]phenyl]-3-(1-methylpyrazol-4-yl)urea], the IC50 under setting [1] turned out to be 4.97 nM.

As for `CCS(=O)(=O)C1(c2cc(N3CCOC[C@@H]3C)nc(-c3ccc(NC(=O)NC4CC4)cc3)n2)CC1` [Example 11, 3-Cyclopropyl-1-[4-[4-(1-ethylsulfonylcyclopropyl)-6-[(3S)-3-methylmorpholin-4-yl]pyrimidin-2-yl]phenyl]urea], the IC50 under setting [1] is 1.65 nM.

Take `CCS(=O)(=O)C1(c2cc(N3CCOC[C@@H]3C)nc(-c3ccc(NC(=O)NC)cc3)n2)CC1` [Example 11a, 1-[4-[4-(1-ethylsulfonylcyclopropyl)-6-[(3S)-3-methylmorpholin-4-yl]pyrimidin-2-yl]phenyl]-3-methyl-urea]: the IC50 is 4.18 nM under setting [1] and 5.9 nM under setting [2].

On to `CCNC(=O)Nc1ccc(-c2nc(N3CCOC[C@@H]3C)cc(C3(S(=O)(=O)CC)CC3)n2)cc1` [Example 11b, 1-ethyl-3-[4-[4-(1-ethylsulfonylcyclopropyl)-6-[(3S)-3-methylmorpholin-4-yl]pyrimidin-2-yl]phenyl]urea], for which the IC50 under setting [1] was 3.33 nM.

As for `CCS(=O)(=O)C1(c2cc(N3CCOC[C@@H]3C)nc(-c3ccc(NC(=O)NC(C)C)cc3)n2)CC1` [Example 11c, 1-[4-[4-(1-ethylsulfonylcyclopropyl)-6-[(3S)-3-methylmorpholin-4-yl]pyrimidin-2-yl]phenyl]-3-propan-2-yl-urea], under setting [1], the IC50 is 24.7 nM.

With `CCS(=O)(=O)C1(c2cc(N3CCOC[C@@H]3C)nc(-c3ccc(NC(=O)NC4CCC4)cc3)n2)CC1` [Example 11d, 3-cyclobutyl-1-[4-[4-(1-ethylsulfonylcyclopropyl)-6-[(3S)-3-methylmorpholin-4-yl]pyrimidin-2-yl]phenyl]urea], the IC50 under setting [1] turned out to be 6.42 nM.

As to `CCS(=O)(=O)C1(c2cc(N3CCOC[C@@H]3C)nc(-c3ccc(NC(=O)NCCO)cc3)n2)CC1` [Example 11e, 1-[4-[4-(1-ethylsulfonylcyclopropyl)-6-[(3S)-3-methylmorpholin-4-yl]pyrimidin-2-yl]phenyl]-3-(2-hydroxyethyl)urea], the IC50 is 1.35 nM under setting [1] and 1.97 nM under setting [2].

In the case of `CCS(=O)(=O)C1(c2cc(N3CCOC[C@@H]3C)nc(-c3ccc(NC(=O)NC(C)(C)CO)cc3)n2)CC1` [Example 11f, 1-[4-[4-(1-ethylsulfonylcyclopropyl)-6-[(3S)-3-methylmorpholin-4-yl]pyrimidin-2-yl]phenyl]-3-(1-hydroxy-2-methyl-propan-2-yl)urea], the IC50 under setting [1] came to 3.37 nM.

For `CCS(=O)(=O)C1(c2cc(N3CCOC[C@@H]3C)nc(-c3ccc(NC(=O)NCCN(C)C)cc3)n2)CC1` [Example 11g, 3-(2-dimethylaminomethyl)-1-[4-[4-(1-ethylsulfonylcyclopropyl)-6-[(3S)-3-methylmorpholin-4-yl]pyrimidin-2-yl]phenyl]urea], under setting [1], the IC50 was 313 nM.

With `CCCNC(=O)Nc1ccc(-c2nc(N3CCOC[C@@H]3C)cc(C3(S(=O)(=O)CC)CC3)n2)cc1` [Example 11h, 3-[4-[4-(1-ethylsulfonylcyclopropyl)-6-[(3S)-3-methylmorpholin-4-yl]pyrimidin-2-yl]phenyl]-1-propyl-urea], under setting [1], the IC50 was determined as 9.13 nM.

On to `CCS(=O)(=O)C1(c2cc(N3CCOC[C@@H]3C)nc(-c3ccc(NC(=O)NCC(C)C)cc3)n2)CC1` [Example 11i, 1-[4-[4-(1-ethylsulfonylcyclopropyl)-6-[(3S)-3-methylmorpholin-4-yl]pyrimidin-2-yl]phenyl]-3-(2-methylpropyl)urea], for which the IC50 under setting [1] stood at 29.4 nM.

`CCS(=O)(=O)C1(c2cc(N3CCOC[C@@H]3C)nc(-c3ccc(NC(=O)NCCCO)cc3)n2)CC1` [Example 11j, 1-[4-[4-(1-ethylsulfonylcyclopropyl)-6-[(3S)-3-methylmorpholin-4-yl]pyrimidin-2-yl]phenyl]-3-(3-hydroxypropyl)urea]: under setting [1], the IC50 came to 12.2 nM.

As to `CCS(=O)(=O)C1(c2cc(N3CCOC[C@@H]3C)nc(-c3ccc(NC(=O)Nc4ccc(C(F)(F)F)cc4)cc3)n2)CC1` [Example 11k, 1-[4-[4-(1-ethylsulfonylcyclopropyl)-6-[(3S)-3-methylmorpholin-4-yl]pyrimidin-2-yl]phenyl]-3-[4-(trifluoromethyl)phenyl]urea], the IC50 under setting [1] was 3.32 nM.

`CCS(=O)(=O)C1(c2cc(N3CCOC[C@@H]3C)nc(-c3ccc(NC(=O)Nc4ccccn4)cc3)n2)CC1` [Example 11l, 1-[4-[4-(1-ethylsulfonylcyclopropyl)-6-[(3S)-3-methylmorpholin-4-yl]pyrimidin-2-yl]phenyl]-3-pyridin-2-yl-urea]: the IC50 under setting [1] was 3.56 nM.

Take `CCS(=O)(=O)C1(c2cc(N3CCOC[C@@H]3C)nc(-c3ccc(NC(=O)Nc4cnn(C)c4)cc3)n2)CC1` [Example 11m, 1-[4-[4-(1-ethylsulfonylcyclopropyl)-6-[(3S)-3-methylmorpholin-4-yl]pyrimidin-2-yl]phenyl]-3-(1-methylpyrazol-4-yl)urea]: under setting [1], the IC50 amounted to 4.37 nM.

Take `CS(=O)(=O)C1(c2cc(N3CCOCC3)nc(-c3ccc(NC(=O)NC4CC4)cc3)n2)CC1` [Example 12, 3-Cyclopropyl-1-[4-[4-(1-methylsulfonylcyclopropyl)-6-morpholin-4-ylpyrimidin-2-yl]phenyl]urea]: under setting [1], the IC50 came to 4.21 nM.

As for `CNC(=O)Nc1ccc(-c2nc(N3CCOCC3)cc(C3(S(C)(=O)=O)CC3)n2)cc1` [Example 12a, 3-methyl-1-[4-[4-(1-methylsulfonylcyclopropyl)-6-morpholin-4-ylpyrimidin-2-yl]phenyl]urea], the IC50 under setting [1] was found to be 1.67 nM.

Turning to `CCNC(=O)Nc1ccc(-c2nc(N3CCOCC3)cc(C3(S(C)(=O)=O)CC3)n2)cc1` [Example 12b, 3-ethyl-1-[4-[4-(1-methylsulfonylcyclopropyl)-6-morpholin-4-ylpyrimidin-2-yl]phenyl]urea], under setting [1], the IC50 was 2.71 nM.

For `CS(=O)(=O)C1(c2cc(N3CCOCC3)nc(-c3ccc(NC(=O)NC4CCC4)cc3)n2)CC1` [Example 12c, 3-cyclobutyl-1-[4-[4-(1-methylsulfonylcyclopropyl)-6-morpholin-4-ylpyrimidin-2-yl]phenyl]urea], the IC50 worked out at 1.52 nM under setting [1] and 7.51 nM under setting [2].

Turning to `CS(=O)(=O)C1(c2cc(N3CCOCC3)nc(-c3ccc(NC(=O)NCCO)cc3)n2)CC1` [Example 12d, 3-(2-hydroxyethyl)-1-[4-[4-(1-methylsulfonylcyclopropyl)-6-morpholin-4-ylpyrimidin-2-yl]phenyl]urea], the IC50 under setting [1] was determined as 1.55 nM.

For the molecule `CC(C)(CO)NC(=O)Nc1ccc(-c2nc(N3CCOCC3)cc(C3(S(C)(=O)=O)CC3)n2)cc1` [Example 12e, 3-(1-hydroxy-2-methylpropan-2-yl)-1-[4-[4-(1-methylsulfonylcyclopropyl)-6-morpholin-4-ylpyrimidin-2-yl]phenyl]urea], the IC50 under setting [1] was 4.59 nM.

Regarding `CN(C)CCNC(=O)Nc1ccc(-c2nc(N3CCOCC3)cc(C3(S(C)(=O)=O)CC3)n2)cc1` [Example 12f, 3-(2-dimethylaminoethyl)-1-[4-[4-(1-methylsulfonylcyclopropyl)-6-morpholin-4-ylpyrimidin-2-yl]phenyl]urea], the IC50 was determined as 60.5 nM under setting [1] and 350 nM under setting [2].

In the case of `CCCNC(=O)Nc1ccc(-c2nc(N3CCOCC3)cc(C3(S(C)(=O)=O)CC3)n2)cc1` [Example 12g, 1-[4-[4-(1-methylsulfonylcyclopropyl)-6-morpholin-4-ylpyrimidin-2-yl]phenyl]-3-propylurea], the IC50 under setting [1] came out at 2.73 nM.

In the case of `CS(=O)(=O)C1(c2cc(N3CCOCC3)nc(-c3ccc(NC(=O)NCCCO)cc3)n2)CC1` [Example 12h, 3-(3-hydroxypropyl)-1-[4-[4-(1-methylsulfonylcyclopropyl)-6-morpholin-4-ylpyrimidin-2-yl]phenyl]urea], the IC50 under setting [1] is 3.92 nM.

Take `Cn1cc(NC(=O)Nc2ccc(-c3nc(N4CCOCC4)cc(C4(S(C)(=O)=O)CC4)n3)cc2)cn1` [Example 12i, 3-(1-methylpyrazol-4-yl)-1-[4-[4-(1-methylsulfonylcyclopropyl)-6-morpholin-4-ylpyrimidin-2-yl]phenyl]urea]: the IC50 under setting [1] stood at 0.771 nM.

The values are drawn from US20090018134A1, “Compounds - 945” (AstraZeneca AB, priority 2007, published 2009).
